Data as given in patent EP4603105A1, “PHARMACEUTICAL COMPOSITION CONTAINING CYCLIC COMPOUND HAVING SELECTIVE KRAS INHIBITORY EFFECT AGAINST HRAS AND NRAS” (CHUGAI SEIYAKU KABUSHIKI KAISHA, priority 2022, dated 2024).
*1 amine or outer side, *2 acyl side, *3 side chain or, on linkers, in order; H or OH if unused. Where a SMILES comes first, the peptide text is derived from it. Bridges are numbered along the chain shown (N, C = ends). [ ]: non-standard residue; d: D form. The star is where a group is joined. hPhe(3,5-F2-4-CF3) = N[C@@H](CCc1cc(F)c(C(F)(F)F)c(F)c1)C(=O)O; hPhe(3-Cl-4-CF3) = N[C@@H](CCc1ccc(C(F)(F)F)c(Cl)c1)C(=O)O; NPrPhe(4-CF3) = CCCN[C@@H](Cc1ccc(C(F)(F)F)cc1)C(=O)O; hPhe(3,4-Cl2) = N[C@@H](CCc1ccc(Cl)c(Cl)c1)C(=O)O; X50 = C=CCN([C@@H](Cc1ccc(C)cc1)C(=O)[*:2])[*:1]; NPrPhe(4-Me) = CCCN[C@@H](Cc1ccc(C)cc1)C(=O)O; NMeGly(cPent) = CN[C@H](C(=O)O)C1CCCC1; Pro(4,4-F2) = O=C(O)[C@@H]1CC(F)(F)CN1; NMeAllylGly = C=CC[C@H](NC)C(=O)O; NMeD = CN[C@@H](CC(=O)O)C(=O)O; NMeL = CN[C@@H](CC(C)C)C(=O)O; Iva = CC[C@](C)(N)C(=O)O; Morpholide = C1CN(*)CCO1; NMeA = CN[C@@H](C)C(=O)O; Ac5c = NC1(C(=O)O)CCCC1; Aze = O=C(O)[C@@H]1CCN1; Ac4c = NC1(C(=O)O)CCC1; Sar = CNCC(=O)O

Key:
[1] = target: GDP-bound NRAS wild-type protein (Homo sapiens, UniProt P01111); experiment: Binding to NRAS by surface plasmon resonance (SPR), KD and KD ratio to KRAS; conditions: ratio of KD for GDP-bound NRAS wild-type protein to KD for KRAS
Sequence of GDP-bound NRAS wild-type protein (P01111 whole entry): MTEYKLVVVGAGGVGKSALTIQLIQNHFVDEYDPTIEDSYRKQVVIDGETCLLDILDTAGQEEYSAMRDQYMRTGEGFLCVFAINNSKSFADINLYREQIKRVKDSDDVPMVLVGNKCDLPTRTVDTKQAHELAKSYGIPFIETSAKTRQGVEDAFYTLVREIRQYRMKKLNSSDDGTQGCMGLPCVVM
Outline: (§1)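 Each cycle, GDP-bound biotin-Avi RAS was captured (~100–300 RU), compound concentrations were injected low to high for 75 s each at 100 µL/min, then the chip was regenerated. Buffer: HBS pH 7.4, 10 mM MgCl2, 10 µM GDP, 1 mM DTT, 4% DMSO; 30°C. KD from a 1:1 binding model.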

HRAS wild-type protein = HRAS wild-type protein (Homo sapiens, UniProt P01112); experiment: Binding to HRAS by surface plasmon resonance (SPR), KD and KD ratio to KRAS; conditions: ratio of KD for HRAS wild-type protein to KD for KRAS
Sequence of HRAS wild-type protein (P01112 whole entry): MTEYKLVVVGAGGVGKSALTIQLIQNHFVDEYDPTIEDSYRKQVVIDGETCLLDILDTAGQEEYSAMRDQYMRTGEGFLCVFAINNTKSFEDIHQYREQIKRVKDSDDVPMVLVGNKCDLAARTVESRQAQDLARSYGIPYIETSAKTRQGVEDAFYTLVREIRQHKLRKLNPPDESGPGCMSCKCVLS
Outline: as §1

[2] = system: human lung cancer strain NCI-H441; format: cell-based
Outline: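 Signal came from […] measured per well once the reagent was added. Beforehand, cells were cultured at 37°C and 5% carbon dioxide on a compound series serially diluted in dimethyl sulfoxide.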

Compound | IC50 [2] [nM] | NRAS /KRAS [1] | HRAS /KRAS (HRAS wild-type protein)
C=CC[C@H]1C(=O)N(CC=C)[C@@H](Cc2ccc(C)cc2)C(=O)N(C)CC(=O)N[C@@H](CCc2ccc(C(F)(F)F)c(Cl)c2)C(=O)N2CCC[C@H]2C(=O)NC2(CCCC2)C(=O)N(C)[C@@H](C2CCCC2)C(=O)N(C)[C@H](C(=O)N2CCOCC2)CC(=O)N(C)[C@@H](CC(C)C)C(=O)N[C@@H]([C@@H](C)CC)C(=O)N(C)CC(=O)N1C [PP0139] ([NMeL]I[Sar][NMeAllylGly][X50][Sar][hPhe(3-Cl-4-CF3)]P[Ac5c][NMeGly(cPent)][NMeD]-Morpholide; lactam N-11) | 1500 | C (A compound having a KD ratio of 0.1 or more and less than 3 is denoted as C) | C (A compound having a KD ratio of 0.1 or more and less than 3 is denoted as C)
CCCN1C(=O)CN(C)C(=O)CN(C)C(=O)[C@H]([C@@H](C)CC)NC(=O)[C@H](CC(C)C)N(C)C(=O)C[C@@H](C(=O)N2CCOCC2)N(C)C(=O)[C@H](C2CCCC2)N(C)C(=O)C2(CCCC2)NC(=O)[C@@H]2CCCN2C(=O)[C@H](CCc2ccc(Cl)c(Cl)c2)NC(=O)CN(C)C(=O)[C@@H]1Cc1ccc(C(F)(F)F)cc1 [PP0232] ([NMeL]I[Sar][Sar][NPrPhe(4-CF3)][Sar][hPhe(3,4-Cl2)]P[Ac5c][NMeGly(cPent)][NMeD]-Morpholide; lactam N-11) | 4.7 | B (a compound having 3 or more and less than 10 is denoted as B) | B (a compound having 3 or more and less than 10 is denoted as B)
CCCN1C(=O)[C@@H]2CCN2C(=O)[C@H](C)N(C)C(=O)[C@H]([C@@H](C)CC)NC(=O)[C@H](CC(C)C)N(C)C(=O)C[C@@H](C(=O)N2CCOCC2)N(C)C(=O)[C@H](C2CCCC2)N(C)C(=O)C2(CCCC2)NC(=O)[C@@H]2CCCN2C(=O)[C@H](CCc2ccc(C(F)(F)F)c(Cl)c2)NC(=O)CN(C)C(=O)[C@@H]1Cc1ccc(C)cc1 [PP0052] ([NMeL]I[NMeA][Aze][NPrPhe(4-Me)][Sar][hPhe(3-Cl-4-CF3)]P[Ac5c][NMeGly(cPent)][NMeD]-Morpholide; lactam N-11) | 1.7 | C (A compound having a KD ratio of 0.1 or more and less than 3 is denoted as C) | B (a compound having 3 or more and less than 10 is denoted as B)

The next lines start with results.

IC50 [2] [nM] | Compound | NRAS /KRAS [1] | HRAS /KRAS (HRAS wild-type protein)
2.2 | CCO[C@@H]1C[C@H]2C(=O)NC3(CC(C)(C)C3)C(=O)N(C)[C@@H](C3CCCC3)C(=O)N(C)[C@H](C(=O)N(C)C)CC(=O)N(C)[C@H]3CCCCCCc4ccc(cc4)C[C@@H](C(=O)N(C)CC(=O)N[C@@H](CCc4ccc(C(F)(F)F)c(OC)c4)C(=O)N2C1)N1CC/C=C\C[C@@H](C1=O)N(C)C(=O)CN(C)C(=O)[C@H]([C@@H](C)CC)NC3=O [PP3066] | A (a compound having 10 or more and less than 20 is denoted as A) | B (a compound having 3 or more and less than 10 is denoted as B)
10.3 | CCCN1C(=O)CN(C)C(=O)CN(C)C(=O)[C@H]([C@@H](C)CC)NC(=O)[C@H](CC(C)C)N(C)C(=O)C[C@@H](C(=O)N(C)C)N(C)C(=O)[C@H](C2CCCC2)N(C)C(=O)[C@](C)(CC)NC(=O)[C@@H]2CCCN2C(=O)[C@H](CCc2cc(F)c(C(F)(F)F)c(F)c2)NC(=O)CN(C)C(=O)[C@@H]1Cc1ccc(C(F)(F)F)cc1 [PP0805] ([NMeL]I[Sar][Sar][NPrPhe(4-CF3)][Sar][hPhe(3,5-F2-4-CF3)]P[Iva][NMeGly(cPent)][NMeD]-NMe2; lactam N-11) | B (a compound having 3 or more and less than 10 is denoted as B) | C (A compound having a KD ratio of 0.1 or more and less than 3 is denoted as C)
7.2 | CCO[C@@H]1C[C@H]2C(=O)NC3(CCC3)C(=O)N(C)[C@@H](C3CCCC3)C(=O)N(C)[C@H](C(=O)N(C)C)CC(=O)N(C)[C@@H](CC3CCCC3)C(=O)N[C@@H]([C@@H](C)CC)C(=O)N(C)CC(=O)N(C)[C@H]3C/C=C\CCN(C3=O)[C@@H](Cc3ccc(C(F)(F)F)cc3)C(=O)N(C)CC(=O)N[C@@H](CCc3ccc(C(F)(F)F)c(Cl)c3)C(=O)N2C1 [PP2842] | A (a compound having 10 or more and less than 20 is denoted as A) | B (a compound having 3 or more and less than 10 is denoted as B)
74.2 | CCCN1C(=O)CN(C)C(=O)CN(C)C(=O)[C@H]([C@@H](C)CC)NC(=O)[C@H](CC(C)C)N(C)C(=O)C[C@@H](C(=O)N2CCOCC2)NC(=O)[C@H](C2CCCC2)N(C)C(=O)C2(CCC2)NC(=O)[C@@H]2CC(F)(F)CN2C(=O)[C@H](CCc2ccc(C(F)(F)F)c(Cl)c2)NC(=O)CN(C)C(=O)[C@@H]1Cc1ccc(C(F)(F)F)cc1 [PP0322] ([NMeL]I[Sar][Sar][NPrPhe(4-CF3)][Sar][hPhe(3-Cl-4-CF3)][Pro(4,4-F2)][Ac4c][NMeGly(cPent)]D-Morpholide; lactam N-11) | B (a compound having 3 or more and less than 10 is denoted as B) | C (A compound having a KD ratio of 0.1 or more and less than 3 is denoted as C)
